{
  "source": "paper PMC8142021",
  "about": "(International Journal for Parasitology: Drugs and Drug …, 2021)",
  "key": {"[1]": {"details": "ref Vandermeulen et al., 2006; cited from earlier work"}, "[2]": {"experiment": "Determination of aqueous solubility", "format": "physicochemical", "details": "phosphate buffer, pH 7, aqueous buffer, thermodynamic from solid"}, "[3]": {"tested_on": "L. infantum axenic amastigotes", "experiment": "Axenic amastigote assay", "format": "cell-based, Leishmania infantum"}, "[4]": {"tested_on": "L. infantum intracellular amastigotes in U937 macrophages", "experiment": "In vitro macrophage infection and intracellular amastigote assay", "format": "cell-based, Leishmania infantum", "details": "infected U937 macrophages, 20 μM"}},
  "note": "Entries after “also recorded” stand apart in the source; their conditions may differ.",
  "data": [
    {"smiles": "C[C@@H]1[C@H](O)[C@@H](C)/C=C/C=C/C=C/C=C/C=C/C=C/C=C/[C@H](O[C@@H]2O[C@H](C)[C@@H](O)[C@H](N)[C@@H]2O)C[C@@H]2O[C@](O)(C[C@@H](O)C[C@@H](O)[C@H](O)CC[C@@H](O)C[C@@H](O)CC(=O)O[C@H]1C)C[C@H](O)[C@H]2C(=O)O", "note": "[Amphotericin B]", "values": [
      {"measurement": "aqueous solubility", "setting": "[1]", "value": 1, "unit": "µg/mL"}
    ]},
    {"smiles": "COc1ccc(NS(=O)(=O)c2ccc(N)cc2)cc1OC", "note": "[Compound 26, 4-Amino-N-(3,4-dimethoxyphenyl)benzenesulfonamide]", "values": [
      {"measurement": "solubility thermodynamic at 72 h", "setting": "[2]", "value": 55, "unit": "µg/mL"}
    ]},
    {"smiles": "COc1cc(N)c(NS(=O)(=O)c2ccc(N(C)C)cc2)cc1OC", "note": "[Compound 35, N-(2-amino-4,5-dimethoxyphenyl)-4-(dimethylamino)benzenesulfonamide]", "values": [
      {"measurement": "solubility thermodynamic at 72 h", "setting": "[2]", "value": 118, "unit": "µg/mL"}
    ]},
    {"smiles": "COc1ccc(S(=O)(=O)Nc2c(C(=O)Nc3c(C(=O)O)cc(OC)c(OC)c3OC)cc(OC)c(OC)c2OC)cc1", "note": "[Compound 63B, 3,4,5-trimethoxy-2-(3,4,5-trimethoxy-2-((4-methoxyphenyl)sulfonamido)benzamido)benzoic acid]", "values": [
      {"measurement": "solubility thermodynamic at 72 h", "setting": "[2]", "value": 1890, "unit": "µg/mL"}
    ]},
    {"smiles": "COc1ccc(S(=O)(=O)Nc2cc(OC)c(NC(=O)CCl)cc2OC)cc1", "note": "[Compound 129, 2-Chloro-N-(2,5-dimethoxy-4-((4-methoxyphenyl)sulfonamido)phenyl)acetamide]", "values": [
      {"measurement": "Leishmania infantum Axenic amastigotes IC50 (μM)", "setting": "[3]; 48 h treatment, XTT", "value": "sub-micromolar"},
      {"measurement": "activity against intracellular amastigotes (in words)", "setting": "[4]", "value": "active; also recorded: infection clearly interrupted"}
    ]},
    {"smiles": "COc1ccc(S(=O)(=O)Nc2cc(C#N)ccc2OS(=O)(=O)c2ccc(OC)cc2)cc1", "note": "[Compound 276B, 4-cyano-2-((4-methoxyphenyl)sulfonamido)phenyl 4-methoxybenzenesulfonate]", "values": [
      {"measurement": "Selectivity index Axenic amastigotes", "setting": "[3]; IC50 cellular cytotoxicity (HeLa)/IC50 antileishmanial activity", "value": 11.5},
      {"measurement": "activity against intracellular amastigotes (in words)", "setting": "[4]", "value": "active"}
    ]},
    {"smiles": "COc1ccc(S(=O)(=O)N(Cc2ccccc2)c2ccc(OC)nc2)cc1", "note": "[Compound 279, N-benzyl-4-methoxy-N-(6-methoxypyridin-3-yl)benzenesulfonamide]", "values": [
      {"measurement": "activity against intracellular amastigotes (in words)", "setting": "[4]", "value": "inactive"}
    ]}
  ]
}
